Assay results published in patent US20090240027A1, “INTERMEDIATES FOR MACROCYCLIC COMPOUNDS” (Tranzyme Pharma Inc., priority 2003, published 2009).

What follows are compounds tested against human motilin receptor (Homo sapiens, UniProt O43193) (assay: Competitive radioligand binding assay (Method B1)). Conditions: Radioligand competitive binding assay, Method B1; values reported as ranges; read-out: Ki (binding activity).
human motilin receptor, sequence (O43193 whole entry): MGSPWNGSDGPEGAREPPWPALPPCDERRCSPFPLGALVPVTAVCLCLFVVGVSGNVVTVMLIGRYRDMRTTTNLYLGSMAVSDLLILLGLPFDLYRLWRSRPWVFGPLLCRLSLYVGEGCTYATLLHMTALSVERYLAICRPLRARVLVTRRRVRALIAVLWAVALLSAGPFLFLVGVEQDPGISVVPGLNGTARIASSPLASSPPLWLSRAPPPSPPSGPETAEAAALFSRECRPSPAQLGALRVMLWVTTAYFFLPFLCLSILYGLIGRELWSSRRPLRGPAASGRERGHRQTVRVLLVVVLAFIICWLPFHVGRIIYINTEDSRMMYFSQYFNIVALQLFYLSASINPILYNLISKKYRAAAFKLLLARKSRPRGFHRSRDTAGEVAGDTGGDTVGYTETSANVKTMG
Set-up: purchased PerkinElmer 6110544; host or cells: CHO cells, stably transfected (membranes)
Protocol: Competitive Radioligand Binding Assay (Motilin Receptor)
• Membranes were prepared from CHO cells stably transfected with the human motilin receptor and utilized at a quantity of 1.5 μg/assay point.
Final Test Concentrations (N=11) for Compounds:
Compounds were provided frozen on dry ice at a stock concentration of 10 mM diluted in 100% DMSO and stored at −20° C. until the day of testing. On the test day, compounds were allowed to thaw at room temperature and than diluted in assay buffer according to the desired test concentrations. Under these conditions, the maximum final DMSO concentration in the assay was 0.5%.
Plates are sealed with TopSeal-A, vortexed gently and incubated at room temperature for 2 hours. The reaction is arrested by filtering samples through pre-soaked (0.3% polyethyleneimine, 2 h) Multiscreen Harvest plates using a Tomtec® Harvester (Tomtec, Hamden, Conn.)), washed 9 times with 500 μL of cold 50 mM Tris-HCl (pH 7.4), and than plates are air-dried in a fumehood for 30 minutes. A bottom seal is applied to the plates prior to the addition of 25 μL of MicroScint-0™ to each well.
Data are analyzed by GraphPad™ Prism (GraphPad Software, San Diego, Calif.) using a variable slope non-linear regression analysis.
where total and non-specific binding represent the cpm obtained in the absence or presence of 1 μM motilin, respectively.
Work on `CCC[C@@H]1NC(=O)[C@@H](C(C)C)NC(=O)[C@@H](Cc2ccccc2)NCCOc2ccccc2/C=C/CNC1=O` [Compound 2] yielded a Ki of 0.001 to 0.1 µM. `CCCC1NC(=O)C(C)NC(=O)C(Cc2ccc(O)cc2)NCCOc2ccccc2C=CCNC1=O` (stereo not drawn) [Compound 5] was tested, and the Ki was 0.1 to 1 µM. With `CSCCC1NC(=O)C(C(C)C)NC(=O)C(Cc2ccc(O)cc2)NCCOc2ccccc2C=CCNC1=O` (stereo not drawn) [Compound 6] the Ki was 0.1 to 1 µM. `CCCCC1NC(=O)C(C(C)C)NC(=O)C(Cc2ccc(O)cc2)NCCOc2ccccc2C=CCNC1=O` (stereo not drawn) [Compound 7] showed a Ki of 0.1 to 1 µM. In the case of `CC(C)C1NC(=O)C(Cc2ccc(O)cc2)NCCOc2ccccc2C=CCNC(=O)C(C(C)C)NC1=O` (stereo not drawn) [Compound 9], the Ki is reported as 0.1 to 1 µM. `CC(C)C[C@@H]1NC(=O)[C@@H](C(C)C)NC(=O)[C@@H](Cc2ccc(O)cc2)NCCOc2ccccc2/C=C/CNC1=O` [Compound 10] gave a Ki of 0.001 to 0.1 µM. For `CCC1NC(=O)C(C(C)C)NC(=O)C(Cc2ccc(O)cc2)NCCOc2ccccc2C=CCNC1=O` (stereo not drawn) [Compound 12], the Ki was 0.1 to 1 µM. `CC(C)CC1NC(=O)C(C(C)C)NC(=O)C(Cc2ccccc2)NCCOc2ccccc2CCCNC1=O` (stereo not drawn) [Compound 13] showed a Ki of 0.1 to 1 µM. `CC(C)C[C@@H]1NC(=O)[C@@H](C(C)C)NC(=O)[C@@H](Cc2ccc3ccccc3c2)NCCOc2ccccc2CCCNC1=O` [Compound 14] gave a Ki of 0.1 to 1 µM. `CCC[C@@H]1NC(=O)[C@@H](C(C)C)NC(=O)[C@@H](Cc2cccc(Cl)c2)NCCOc2ccccc2CCCNC1=O` [Compound 15] gave a Ki of 0.001 to 0.1 µM. `CCC[C@@H]1NC(=O)[C@@H](C(C)C)NC(=O)[C@@H](Cc2ccc(Cl)cc2)NCCOc2ccccc2CCCNC1=O` [Compound 16] showed a Ki of 0.001 to 0.1 µM. `CCC[C@@H]1NC(=O)[C@@H](C(C)C)NC(=O)[C@@H](Cc2c[nH]c3ccccc23)NCCOc2ccccc2CCCNC1=O` [Compound 17] was tested, and the Ki was 0.1 to 1 µM. `CCCC1NC(=O)C(CC)NC(=O)C(Cc2ccc(O)cc2)NCCOc2ccccc2CCCNC1=O` (stereo not drawn) [Compound 18] gave a Ki of 0.1 to 1 µM. `CCC[C@@H]1NC(=O)[C@@H](C(C)C)NC(=O)[C@@H](Cc2ccc(F)cc2)NCCOc2ccccc2CCCNC1=O` [Compound 19] gave a Ki of 0.001 to 0.1 µM. In the case of `CC(C)CC1NC(=O)C(C(C)C)NC(=O)C(Cc2ccccc2)NCCOc2ccccc2C=CCNC1=O` (stereo not drawn) [Compound 20], the Ki is reported as 0.1 to 1 µM. In the case of `CC(C)C[C@@H]1NC(=O)[C@@H](C(C)C)NC(=O)[C@@H](Cc2ccc3ccccc3c2)NCCOc2ccccc2/C=C/CNC1=O` [Compound 21], the Ki is reported as 0.001 to 0.1 µM. Work on `CCC[C@@H]1NC(=O)[C@@H](C(C)C)NC(=O)[C@@H](Cc2ccc(OC)cc2)NCCOc2ccccc2CCCNC1=O` [Compound 22] yielded a Ki of 0.001 to 0.1 µM. `CCC[C@@H]1NC(=O)[C@@H](C(C)C)NC(=O)[C@@H](Cc2cccc3ccccc23)NCCOc2ccccc2CCCNC1=O` [Compound 23] gave a Ki of 0.001 to 0.1 µM. In the case of `CCCC1NC(=O)C(C(C)C)NC(=O)C(Cc2ccccc2Cl)NCCOc2ccccc2CCCNC1=O` (stereo not drawn) [Compound 25], the Ki is reported as 0.1 to 1 µM. In the case of `CC(C)[C@H]1NC(=O)[C@@H](Cc2ccc(O)cc2)NCCOc2ccccc2CCCNC(=O)[C@H](CC2CC2)NC1=O` [Compound 26], the Ki is reported as 0.001 to 0.1 µM. `CCCC1NC(=O)C(C(C)C)NC(=O)C(Cc2cscn2)NCCOc2ccccc2CCCNC1=O` (stereo not drawn) [Compound 27] was tested, and the Ki was 0.1 to 1 µM. Work on `CCCC1NC(=O)C(C(C)C)NC(=O)C(Cc2cccnc2)NCCOc2ccccc2CCCNC1=O` (stereo not drawn) [Compound 28] yielded a Ki of 0.1 to 1 µM. In the case of `CCCC1NC(=O)C(Cc2ccc(O)cc2)NC(=O)C(Cc2ccc(O)cc2)NCCOc2ccccc2C=CCNC1=O` (stereo not drawn) [Compound 34], the Ki is reported as 0.1 to 1 µM. `CC1NC(=O)C(C(C)C)NC(=O)C(Cc2ccc(O)cc2)NCCOc2ccccc2C=CCNC1=O` (stereo not drawn) [Compound 38] was tested, and the Ki was 1 to 10 µM. `CC(C)C1NC(=O)C(Cc2ccc(O)cc2)NCCOc2ccccc2C=CCNC(=O)CNC1=O` (stereo not drawn) [Compound 40] was tested, and the Ki was 1 to 10 µM. `CCCC1NC(=O)C(Cc2ccccc2)NC(=O)C(Cc2ccc(O)cc2)NCCOc2ccccc2C=CCNC1=O` (stereo not drawn) [Compound 41] was tested, and the Ki was 1 to 10 µM. In the case of `CC(C)C1NC(=O)C(Cc2ccc(O)cc2)NCCOc2ccccc2C=CCNC(=O)C(c2ccccc2)NC1=O` (stereo not drawn) [Compound 52], the Ki is reported as 0.1 to 1 µM. For `CC(C)C1NC(=O)C(Cc2ccc(O)cc2)NCCOc2ccccc2C=CCNC(=O)C(CCCCN)NC1=O` (stereo not drawn) [Compound 55], the Ki was 0.1 to 1 µM. For `CC(C)C1NC(=O)C(Cc2ccc(O)cc2)NCCOc2ccccc2C=CCNC(=O)C(CCCN)NC1=O` (stereo not drawn) [Compound 56], the Ki was 0.1 to 1 µM. `CC(C)C1NC(=O)C(Cc2ccc(O)cc2)NCCOc2ccccc2C=CCNC(=O)C(CO)NC1=O` (stereo not drawn) [Compound 57] gave a Ki of 0.1 to 1 µM. Work on `CC(C)C1NC(=O)C(Cc2ccc(O)cc2)NCCOc2ccccc2C=CCNC(=O)C(Cc2ccc(O)cc2)NC1=O` (stereo not drawn) [Compound 58] yielded a Ki of 0.1 to 1 µM. Work on `CC(C)C1NC(=O)C(Cc2ccc(O)cc2)NCCOc2ccccc2C=CCNC(=O)C(Cc2c[nH]c3ccccc23)NC1=O` (stereo not drawn) [Compound 59] yielded a Ki of 0.1 to 1 µM. For `COc1ccc(CC2NC(=O)C(C(C)C)NC(=O)C(Cc3ccc(O)cc3)NCCOc3ccccc3C=CCNC2=O)cc1` (stereo not drawn) [Compound 60], the Ki was 1 to 10 µM. `CCCC1NC(=O)C(C(C)C)NC(=O)C(Cc2ccc(O)cc2)NCCOc2cccc(c2)OCCNC1=O` (stereo not drawn) [Compound 71] gave a Ki of 0.1 to 1 µM. Work on `CC(C)C1NC(=O)C(Cc2ccc(O)cc2)NCCOc2ccccc2C=CCNC(=O)C(Cc2ccc3ccccc3c2)NC1=O` (stereo not drawn) [Compound 72] yielded a Ki of 0.1 to 1 µM. `CCCC1NC(=O)C(Cc2ccc3ccccc3c2)NC(=O)C(Cc2ccc(O)cc2)NCCOc2ccccc2C=CCNC1=O` (stereo not drawn) [Compound 76] showed a Ki of 1 to 10 µM. Compound `CCCCC1NC(=O)C(Cc2ccc(O)cc2)NCCOc2ccccc2C=CCNC(=O)C(CCC)NC1=O` (stereo not drawn) [Compound 77] has a Ki of 1 to 10 µM. In the case of `CCC(C)C1NC(=O)C(C(C)C)NC(=O)C(Cc2ccc(O)cc2)NCCOc2ccccc2C=CCNC1=O` (stereo not drawn) [Compound 80], the Ki is reported as 0.1 to 1 µM. With `CCCC1NC(=O)C(C(C)C)NC(=O)C(Cc2ccc(O)cc2)NCCOc2ccccc2C=CCNC1=O` (stereo not drawn) [Compound 85] the Ki was 0.1 to 1 µM. Compound `CCCC1NC(=O)C(C(C)C)NC(=O)C(Cc2ccc(-c3ccccc3)cc2)NCCOc2ccccc2CCCNC1=O` (stereo not drawn) [Compound 87] has a Ki of 0.1 to 1 µM. Compound `CCCC1NC(=O)C(C(C)C)NC(=O)C(Cc2ccc(OC(C)(C)C)cc2)NCCOc2ccccc2CCCNC1=O` (stereo not drawn) [Compound 88] has a Ki of 1 to 10 µM. `CCCC1NC(=O)C(C(C)C)NC(=O)C(CCc2ccccc2)NCCOc2ccccc2CCCNC1=O` (stereo not drawn) [Compound 89] showed a Ki of 1 to 10 µM. `CCCC1NC(=O)C(C(C)C)NC(=O)C(C(c2ccccc2)c2ccccc2)NCCOc2ccccc2CCCNC1=O` (stereo not drawn) [Compound 90] gave a Ki of 1 to 10 µM. `CCCC1NC(=O)C(CCC)NC(=O)C(Cc2ccc(O)cc2)NCCOc2ccccc2CCCNC1=O` (stereo not drawn) [Compound 91] was tested, and the Ki was 1 to 10 µM. `CCCC1NC(=O)C(C(C)(C)C)NC(=O)C(Cc2ccc(O)cc2)NCCOc2ccccc2CCCNC1=O` (stereo not drawn) [Compound 92] showed a Ki of 0.1 to 1 µM. With `CCCC1NC(=O)CCNC(=O)C(Cc2ccc(O)cc2)NCCOc2ccccc2CCCNC1=O` (stereo not drawn) [Compound 96] the Ki was 1 to 10 µM. In the case of `CCCC1NC(=O)C(C2CCCCC2)NC(=O)C(Cc2ccc(O)cc2)NCCOc2ccccc2CCCNC1=O` (stereo not drawn) [Compound 97], the Ki is reported as 1 to 10 µM. Work on `CCCC1NC(=O)C(C(C)C)NC(=O)C(Cc2ccc(O)cc2)NCCCNCCNC1=O` (stereo not drawn) [Compound 98] yielded a Ki of 1 to 10 µM. `CCCC1NC(=O)C(C(C)C)NC(=O)C(Cc2ccc(O)cc2)NCCN(C)CCNC1=O` (stereo not drawn) [Compound 99] gave a Ki of 1 to 10 µM. In the case of `CC(C)C1NC(=O)C(Cc2ccc(O)cc2)NCCOc2ccccc2CCCNC(=O)C(CCN)NC1=O` (stereo not drawn) [Compound 109], the Ki is reported as 0.1 to 1 µM. Work on `CCCC1NC(=O)C(C(C)C)NC(=O)C(Cc2ccc(O)cc2)NCCOc2cccnc2CCCNC1=O` (stereo not drawn) [Compound 110] yielded a Ki of 0.1 to 1 µM. For `CCCC1NC(=O)C(C(C)C)NC(=O)C(Cc2ccccn2)NCCOc2ccccc2CCCNC1=O` (stereo not drawn) [Compound 123], the Ki was 0.1 to 1 µM. With `CCCC1NC(=O)C(C(C)C)NC(=O)C(Cc2ccncc2)NCCOc2ccccc2CCCNC1=O` (stereo not drawn) [Compound 124] the Ki was 0.1 to 1 µM. Compound `CCCC1NC(=O)C(C2CC2)NC(=O)C(Cc2ccc(O)cc2)NCCOc2ccccc2CCCNC1=O` (stereo not drawn) [Compound 125] has a Ki of 0.1 to 1 µM. With `CCCC1NC(=O)C(C(C)C)NC(=O)C(Cc2c[nH]cn2)NCc2ccccc2Sc2ccccc2CNC1=O` (stereo not drawn) [Compound 127] the Ki was 0.1 to 1 µM. `COc1ccc(C[C@H]2NCCOc3ccccc3CCCNC(=O)[C@H](CC(C)C)NC(=O)[C@@H](C(C)C)NC2=O)cc1` [Compound 128] showed a Ki of 0.1 to 1 µM. For `CC(C)CC1NC(=O)C(C(C)C)NC(=O)C(Cc2cccs2)NCCOc2ccccc2CCCNC1=O` (stereo not drawn) [Compound 130], the Ki was 0.1 to 1 µM. For `CC(C)C[C@@H]1NC(=O)[C@@H](C(C)C)NC(=O)[C@@H](Cc2cccc(Cl)c2)NCCOc2ccccc2CCCNC1=O` [Compound 131], the Ki was 0.001 to 0.1 µM. Compound `CC(C)C[C@@H]1NC(=O)[C@@H](C(C)C)NC(=O)[C@@H](Cc2ccc(Cl)cc2)NCCOc2ccccc2CCCNC1=O` [Compound 132] has a Ki of 0.001 to 0.1 µM. `CC(C)C[C@@H]1NC(=O)[C@@H](C(C)C)NC(=O)[C@@H](Cc2ccc(F)cc2)NCCOc2ccccc2CCCNC1=O` [Compound 133] was tested, and the Ki was 0.001 to 0.1 µM. Compound `COc1ccc(CC2NCCOc3cccnc3CCCNC(=O)C(CC(C)C)NC(=O)C(C(C)C)NC2=O)cc1` (stereo not drawn) [Compound 135] has a Ki of 0.1 to 1 µM.

Same assay, conditions: [125I]-motilin competition, CHO cell membranes with human motilin receptor; read-out: Binding activity (Ki)
For `CCCC1NC(=O)C(C(C)C)NC(=O)C(Cc2ccc(O)cc2)NCCOc2ccccc2C=CCNC1=O` (stereo not drawn) [Compound 1], the Ki was 0.1 to 1 µM.

Same assay, conditions: result in words; linear analogue of compound 1
With `CCC[C@H](NC(=O)[C@H](NC(=O)[C@@H](Cc1ccc(O)cc1)NCCOc1ccccc1/C=C/CNC(C)=O)C(C)C)C(N)=O` [Compound 121] the Binding activity was “lack of binding activity”.
